Organism: Rattus norvegicus
Experiment: DrugMatrix - Regimen: Daily Repeat
Type: toxicity, organism-based, Sprague-Dawley
Parameters: regimen Daily Repeat, gender Male, age 6-8 weeks
Settings: in vivo, po, 1500 mg/kg, route oral GAVAGE, dose level High, vehicle .5 % CMC; for ABSOLUTE BASOPHIL / ABSOLUTE EOSINOPHIL / ABSOLUTE LYMPHOCYTE / ABSOLUTE MONOCYTE / ABSOLUTE SEGMENTED NEUTROPHIL / BASOPHIL / EOSINOPHIL / ERYTHROCYTE COUNT / HEMATOCRIT / HEMOGLOBIN / LEUKOCYTE COUNT / LYMPHOCYTE / MEAN CORPUSCULAR HEMOGLOBIN / MEAN CORPUSCULAR HEMOGLOBIN CONCENTRATION / MEAN CORPUSCULAR VOLUME / MONOCYTE / NEUTROPHIL / NUCLEATED RED BLOOD CELLS / PLATELET COUNT: tissue Blood; for ALANINE AMINOTRANSFERASE / ALBUMIN / ALKALINE PHOSPHATASE / ASPARTATE AMINOTRANSFERASE / BLOOD UREA NITROGEN / CARBON DIOXIDE / CHLORIDE / CHOLESTEROL / CREATINE PHOSPHOKINASE / CREATININE / GLUCOSE / LACTATE DEHYDROGENASE / LIPASE / PHOSPHORUS / POTASSIUM / SODIUM / TOTAL BILIRUBIN / TOTAL PROTEIN / URIC ACID: tissue Plasma

Compound: Nc1nc2c(c(=O)[nH]1)N(C=O)C(CNc1ccc(C(=O)N[C@@H](CCC(=O)O)C(=O)O)cc1)CN2 (stereo partly specified) [LEUCOVORIN]
- ABSOLUTE BASOPHIL (72 h, time 3 day): 0 CELLS/uL
- ABSOLUTE EOSINOPHIL (72 h, time 3 day): 0 CELLS/uL
- ABSOLUTE LYMPHOCYTE (72 h, time 3 day): 14453.33 CELLS/uL
- ABSOLUTE MONOCYTE (72 h, time 3 day): 60 CELLS/uL
- ABSOLUTE SEGMENTED NEUTROPHIL (72 h, time 3 day): 2253.33 CELLS/uL
- BASOPHIL (72 h, time 3 day): 0%
- EOSINOPHIL (72 h, time 3 day): 0%
- ERYTHROCYTE COUNT (72 h, time 3 day): 5.28 x10E6/uL
- HEMATOCRIT (72 h, time 3 day): 35.03%
- HEMOGLOBIN (72 h, time 3 day): 13.77 G/DL
- LEUKOCYTE COUNT (72 h, time 3 day): 16.77 x10E3/uL
- LYMPHOCYTE (72 h, time 3 day): 86.33%
- MEAN CORPUSCULAR HEMOGLOBIN (72 h, time 3 day): 26.07 pg
- MEAN CORPUSCULAR HEMOGLOBIN CONCENTRATION (72 h, time 3 day): 39.33 G/DL
- MEAN CORPUSCULAR VOLUME (72 h, time 3 day): 66.33 fL
- MONOCYTE (72 h, time 3 day): 0.33%
- NEUTROPHIL (72 h, time 3 day): 13.33%
- NUCLEATED RED BLOOD CELLS (72 h, time 3 day): 0 /100WBC
- PLATELET COUNT (72 h, time 3 day): 1212 x10E3/uL
- ALANINE AMINOTRANSFERASE (72 h, time 3 day): 44.33 u/L
- ALBUMIN (72 h, time 3 day): 4.3 G/DL
- ALKALINE PHOSPHATASE (72 h, time 3 day): 372.67 u/L
- ASPARTATE AMINOTRANSFERASE (72 h, time 3 day): 77.67 u/L
- BLOOD UREA NITROGEN (72 h, time 3 day): 11.33 mg/dL
- CARBON DIOXIDE (72 h, time 3 day): 32 mmol/L
- CHLORIDE (72 h, time 3 day): 102 MEQ/L
- CHOLESTEROL (72 h, time 3 day): 68.33 mg/dL
- CREATINE PHOSPHOKINASE (72 h, time 3 day): 183.67 u/L
- CREATININE (72 h, time 3 day): 0.15 mg/dL
- GLUCOSE (72 h, time 3 day): 156 mg/dL
- LACTATE DEHYDROGENASE (72 h, time 3 day): 116 u/L
- LIPASE (72 h, time 3 day): 8.67 u/L
- PHOSPHORUS (72 h, time 3 day): 13.4 mg/dL
- POTASSIUM (72 h, time 3 day): 6.98 MEQ/L
- SODIUM (72 h, time 3 day): 146.03 MEQ/L
- TOTAL BILIRUBIN (72 h, time 3 day): 0.17 mg/dL
- TOTAL PROTEIN (72 h, time 3 day): 6 G/DL
- URIC ACID (72 h, time 3 day): 1.83 mg/dL
- ABSOLUTE BASOPHIL (120 h, time 5 day): 0 CELLS/uL
- ABSOLUTE EOSINOPHIL (120 h, time 5 day): 46.33 CELLS/uL
- ABSOLUTE LYMPHOCYTE (120 h, time 5 day): 14356 CELLS/uL
- ABSOLUTE MONOCYTE (120 h, time 5 day): 200.33 CELLS/uL
- ABSOLUTE SEGMENTED NEUTROPHIL (120 h, time 5 day): 930.67 CELLS/uL
- BASOPHIL (120 h, time 5 day): 0%
- EOSINOPHIL (120 h, time 5 day): 0.33%
- ERYTHROCYTE COUNT (120 h, time 5 day): 5.73 x10E6/uL
- HEMATOCRIT (120 h, time 5 day): 35.37%
- HEMOGLOBIN (120 h, time 5 day): 14.17 G/DL
- LEUKOCYTE COUNT (120 h, time 5 day): 15.53 x10E3/uL
- LYMPHOCYTE (120 h, time 5 day): 92.33%
- MEAN CORPUSCULAR HEMOGLOBIN (120 h, time 5 day): 24.8 pg
- MEAN CORPUSCULAR HEMOGLOBIN CONCENTRATION (120 h, time 5 day): 40.07 G/DL
- MEAN CORPUSCULAR VOLUME (120 h, time 5 day): 61.77 fL
- MONOCYTE (120 h, time 5 day): 1.33%
- NEUTROPHIL (120 h, time 5 day): 6%
- NUCLEATED RED BLOOD CELLS (120 h, time 5 day): 0 /100WBC
- PLATELET COUNT (120 h, time 5 day): 1112.33 x10E3/uL
- ALANINE AMINOTRANSFERASE (120 h, time 5 day): 56.67 u/L
- ALBUMIN (120 h, time 5 day): 4.3 G/DL
- ALKALINE PHOSPHATASE (120 h, time 5 day): 387 u/L
- ASPARTATE AMINOTRANSFERASE (120 h, time 5 day): 87.33 u/L
- BLOOD UREA NITROGEN (120 h, time 5 day): 16.33 mg/dL
- CARBON DIOXIDE (120 h, time 5 day): 36 mmol/L
- CHLORIDE (120 h, time 5 day): 99.67 MEQ/L
- CHOLESTEROL (120 h, time 5 day): 57.33 mg/dL
- CREATINE PHOSPHOKINASE (120 h, time 5 day): 288.67 u/L
- CREATININE (120 h, time 5 day): 0.2 mg/dL
- GLUCOSE (120 h, time 5 day): 147 mg/dL
- LACTATE DEHYDROGENASE (120 h, time 5 day): 263.67 u/L
- LIPASE (120 h, time 5 day): 9 u/L
- PHOSPHORUS (120 h, time 5 day): 12.9 mg/dL
- POTASSIUM (120 h, time 5 day): 6.55 MEQ/L
- SODIUM (120 h, time 5 day): 145.83 MEQ/L
- TOTAL BILIRUBIN (120 h, time 5 day): 0.2 mg/dL
- TOTAL PROTEIN (120 h, time 5 day): 6.13 G/DL
- URIC ACID (120 h, time 5 day): 1.37 mg/dL

— ChEMBL document CHEMBL3885881, “DrugMatrix”
